The subject of data set [1] is Rev-mediated RRE export (RRE: Rev: Crm1 interactions). Briefly: Nucleocytoplasmic export assay (CAT assay) based on plasmid pDM128 in HeLa cells. Type of data set: cell-based, HIV-1. Conditions: HeLa cells co-transfected with pDM128 and pSV2-Rev. How it is done: Lastly, multitarget-binding and inhibitory capabilities of hetero-SPCHs were examined. To evaluate the inhibition of Rev-mediated RRE export, a nucleocytoplasmic export assay based on plasmid pDM128 expressing RRE (see FIG. 23) was performed.
Referring to FIG. 24, as shown in a chloramphenicol acetyltransferase (CAT) assay (lane 3), co-transfection of pDM128 with pSV2-Rev (Rev-expressing plasmid) in HeLa cells enables an effective nucleocytoplasmic export of RRE RNA. In contrast, negligible CAT activity was observed when the cells were co-transfected with pBluescript KS(+) (negative control plasmid) (lane 2).
In addition, to confirm whether nucleocytoplasmic export mediated by RRE: Rev: Crm1 interactions could be inhibited by peptide-CNT hybrids, the cells were treated with hetero-(A&N)-SPCHs.
HeLa cells were incubated under 5% CO2 at 37° C. in DMEM supplemented with 10% FBS and 1% pen/strep. 4×10^4 of the incubated cells were distributed into a 48-well plate, and then incubated under 5% CO2 at 37° C. overnight. Subsequently, the resulting cells were washed with DPBS, and then a plasmid (total 250 ng; pDM128, pBluescript II KS (+), pSV2-Rev) complexed with 0.7 μL of a jetPEI DNA transfection reagent was added to each well. […]
The samples were normalized with the concentrations of proteins measured by a BCA assay (BCA protein assay kit; Pierce, USA). […]

Data set [2] concerns cyc-ARM peptide on SWCNT (homo-ARM-SPCH) (HIV-1 (Rev ARM, synthetic)). In words: competition. Particulars: hybrid concentration for complete exchange of 6 uM Rev from 100 nM RRE by EMSA; stated about 10,000 times stronger RRE binding than Rev.

In the case of `CCC(=C/[C@H](C)C/C=C/C(C)=C/[C@@H](C)C(=O)[C@@H](C)[C@H](O)[C@@H](C)C/C(C)=C/C(=O)O)/C=C/[C@@H]1OC(=O)C=C[C@@H]1C` [LMB, leptomycin B], the “concentration required to completely inhibit the RRE export” value in data set [1] is recorded as 100 nM.

On to “GGGCGAAUUGGAGCUCGCUAUGUUCCUUGGGUUCUUGGGAGCAGCAGGAAGCACUAUGGGCGCAGUGUCAUUGACGCUGACGGUACAGGCCAGACAAUUAUUGUCUGGUAUAGUGCAACAGCAGAACAAUUUGCUGAGGGCUAUUGAGGCGCAACAACAUCUGUUGCAACUCACAGUCUGGGGCAUCAAGCAGCUCCAGGCAAGAGUCCUGGCUGUGGAAAGAUACCUAAGGGAUCAACAGCUCCUAGGGAUG [full-length RRE RNA transcript (253 nt)]”, for which, in data set [2], the binding is 600 pM.
